Test [1] concerns the target G-protein coupled receptor 35 (Homo sapiens, UniProt Q9HC97). Kind of test: SAR analysis of Antagonists of the GPR35 Receptor using an Image-Based Assay - Set 5. [Related pubchem assays (depositor defined):AID2058, AID2079]. In kind it is functional.
Test [2] concerns the target Luciferin 4-monooxygenase (Photinus pyralis, UniProt P08659). Kind of test: firefly luciferase enzyme inhibitors, dose response, biochemical, luminescence (AID 1891).
The nature of test [3]: Luminescence Cell-Based Dose Confirmation HTS to Identify Inhibitors of Platelet Dense Granule Release. [Related pubchem assays: 1663 (Primary HTS), 1678 (Summary of Project)]. In kind it is functional.
Test [4] concerns the target G-protein coupled receptor 55 (Homo sapiens, UniProt Q9Y2T6). Kind of test: SAR Analysis of Selective Antagonists of GPR55 using an Image-Based Assay - Set 3. [Related pubchem assays (depositor defined):AID2058, AID2079]. In kind it is functional.
For test [5], the target named is T1, Short transient receptor potential channel 4 (Mus musculus, UniProt Q9QUQ5).
T1 sequence (Q9QUQ5 whole entry): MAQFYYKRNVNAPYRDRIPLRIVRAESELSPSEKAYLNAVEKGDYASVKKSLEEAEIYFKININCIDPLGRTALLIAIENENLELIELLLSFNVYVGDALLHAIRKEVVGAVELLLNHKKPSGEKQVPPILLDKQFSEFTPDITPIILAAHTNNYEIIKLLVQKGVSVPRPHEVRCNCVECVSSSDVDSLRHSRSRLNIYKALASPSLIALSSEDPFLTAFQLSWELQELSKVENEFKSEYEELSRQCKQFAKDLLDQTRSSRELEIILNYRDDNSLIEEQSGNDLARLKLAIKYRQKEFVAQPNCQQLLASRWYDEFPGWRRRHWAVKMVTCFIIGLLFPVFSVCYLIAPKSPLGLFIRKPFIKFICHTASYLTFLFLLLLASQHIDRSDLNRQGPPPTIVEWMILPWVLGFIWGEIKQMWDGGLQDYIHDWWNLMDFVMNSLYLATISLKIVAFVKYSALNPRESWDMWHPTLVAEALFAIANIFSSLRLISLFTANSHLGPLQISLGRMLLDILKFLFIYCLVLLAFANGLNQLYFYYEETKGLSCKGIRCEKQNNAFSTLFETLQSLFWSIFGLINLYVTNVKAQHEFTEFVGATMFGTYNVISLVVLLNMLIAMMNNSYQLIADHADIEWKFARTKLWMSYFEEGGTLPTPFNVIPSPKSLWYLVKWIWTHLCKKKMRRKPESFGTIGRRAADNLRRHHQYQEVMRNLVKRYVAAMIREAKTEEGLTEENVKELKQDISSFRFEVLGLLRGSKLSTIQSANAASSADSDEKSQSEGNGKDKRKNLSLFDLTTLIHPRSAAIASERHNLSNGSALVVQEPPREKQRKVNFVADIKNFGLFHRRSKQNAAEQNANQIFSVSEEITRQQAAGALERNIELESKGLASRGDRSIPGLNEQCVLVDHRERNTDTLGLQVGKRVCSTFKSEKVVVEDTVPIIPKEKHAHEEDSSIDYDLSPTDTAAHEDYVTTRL
Kind of test: TRPC4 positive allosteric modulators, dose response, cell-based, HEK293 TRPC4/mu-opioid, Fluo-4 calcium, EC20 DAMGO (AID 434941).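 Also: HEK293 cells coexpressing TRPC4 and mu opioid receptor stimulated by EC20 DAMGO.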 It is filed as functional.

Test [6] has as its target Disintegrin and metalloproteinase domain-containing protein 17 (Homo sapiens, UniProt P78536). Kind of test: ADAM17 protease inhibitors, dose response, counter-screen for ADAM10 exosite inhibitor project, biochemical, quenched FRET substrate (AID 743253).
The nature of test [7]: ADAM10 inhibitors, peptide cleavage, dose response, biochemical, QFRET (AID 743254).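 Also: ADAM10 enzyme with the DM2 quenched FRET peptide as substrate; EDANS fluorescence gain as the protease cuts the substrate; inhibitor potency against ADAM10 proteolytic activity.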
Test [8] has as its target T2, Small ubiquitin-related modifier 1 (Homo sapiens, UniProt P63165). Kind of test: inhibitors of SUMO1 peptide binding, dose response, biochemical, fluorescence polarization, uHTS hits (AID 624382). In kind it is functional. To be noted: read-out: IC50_Mean.
In test [9] the target is T3, Small ubiquitin-related modifier 2 (Homo sapiens, UniProt P61956). Kind of test: inhibitors of SUMO2 protein-protein interaction, dose response, selectivity assay for SUMO1 interaction inhibitor project, biochemical, FRET, human SUMO2, uHTS hits (AID 624384). It is filed as functional. To be noted: read-out: IC50_Mean.
Another test concerns the target T4, Hexokinase HKDC1 (Homo sapiens, UniProt Q2TB90).
T4 sequence (Q2TB90 whole entry): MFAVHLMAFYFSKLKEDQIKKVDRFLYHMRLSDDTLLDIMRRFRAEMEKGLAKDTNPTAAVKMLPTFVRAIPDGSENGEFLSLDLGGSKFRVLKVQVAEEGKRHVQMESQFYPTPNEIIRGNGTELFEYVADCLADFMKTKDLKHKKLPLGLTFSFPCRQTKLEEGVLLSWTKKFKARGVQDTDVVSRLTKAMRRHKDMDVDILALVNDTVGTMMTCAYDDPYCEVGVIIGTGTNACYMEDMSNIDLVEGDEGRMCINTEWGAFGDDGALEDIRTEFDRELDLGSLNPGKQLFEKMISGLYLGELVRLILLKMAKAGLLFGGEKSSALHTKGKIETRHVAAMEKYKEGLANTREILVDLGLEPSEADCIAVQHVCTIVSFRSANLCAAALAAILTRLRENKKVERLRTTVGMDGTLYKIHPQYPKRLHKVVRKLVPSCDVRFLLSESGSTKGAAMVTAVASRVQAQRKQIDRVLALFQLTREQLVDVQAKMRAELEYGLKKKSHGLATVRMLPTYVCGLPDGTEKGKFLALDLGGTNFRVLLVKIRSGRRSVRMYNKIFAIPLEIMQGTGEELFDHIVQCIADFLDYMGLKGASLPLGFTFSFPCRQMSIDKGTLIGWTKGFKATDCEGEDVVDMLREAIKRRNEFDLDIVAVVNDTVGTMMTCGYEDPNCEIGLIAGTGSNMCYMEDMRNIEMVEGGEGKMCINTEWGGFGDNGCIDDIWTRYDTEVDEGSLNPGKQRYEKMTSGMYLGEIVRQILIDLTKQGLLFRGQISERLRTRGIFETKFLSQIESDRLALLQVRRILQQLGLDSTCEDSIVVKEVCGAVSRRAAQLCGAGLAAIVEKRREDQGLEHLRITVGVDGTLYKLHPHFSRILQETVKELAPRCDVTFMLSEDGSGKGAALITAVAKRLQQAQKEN
Kind of test: HKDC1 hexokinase inhibitors, dose response, biochemical, W721R variant (AID 504729). In kind it is functional.

For a further test, the target named is Genome polyprotein (dengue virus type 2, UniProt P29990). Kind of test: Dengue-2 NS5 methyltransferase inhibitors, primary screen, biochemical, confirmation dose response (AID 588689). It is filed as functional.
For a further test, the system named is HeLa. Kind of test: HeLa cell cytotoxicity, dose response, cytotoxicity control, 24 h, cherry-picked samples (AID 504726).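 Also: potency for cytotoxicity as loss of luminescence signal.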 As to conditions: Homo sapiens. In kind it is functional, cell-based.
In test [10] the target is T5, Polyadenylate-binding protein 1 (Homo sapiens, UniProt P11940). Kind of test: PABP1 MLLE–PAM2 interaction inhibitors, dose response, miRNA deadenylation inhibitor project, biochemical, fluorescence polarization, Cy5-PAM2 peptide, secondary (AID 602260). It is filed as functional. To be noted: read-out: IC50_Mean.
In another test the target is Troponin, cardiac muscle (Homo sapiens, UniProt P19429+P45379+P63316). Kind of test: inhibitors of cardiac thin filament calcium sensitivity, dose response, biochemical, fluorescence, cardiac regulated thin filaments, triplicate IC50 (AID 504742). In kind it is protein-complex assay.
For the next test, the target named is T6, ORF 73 (Human herpesvirus 8, UniProt O40947).
T6 sequence (O40947 whole entry): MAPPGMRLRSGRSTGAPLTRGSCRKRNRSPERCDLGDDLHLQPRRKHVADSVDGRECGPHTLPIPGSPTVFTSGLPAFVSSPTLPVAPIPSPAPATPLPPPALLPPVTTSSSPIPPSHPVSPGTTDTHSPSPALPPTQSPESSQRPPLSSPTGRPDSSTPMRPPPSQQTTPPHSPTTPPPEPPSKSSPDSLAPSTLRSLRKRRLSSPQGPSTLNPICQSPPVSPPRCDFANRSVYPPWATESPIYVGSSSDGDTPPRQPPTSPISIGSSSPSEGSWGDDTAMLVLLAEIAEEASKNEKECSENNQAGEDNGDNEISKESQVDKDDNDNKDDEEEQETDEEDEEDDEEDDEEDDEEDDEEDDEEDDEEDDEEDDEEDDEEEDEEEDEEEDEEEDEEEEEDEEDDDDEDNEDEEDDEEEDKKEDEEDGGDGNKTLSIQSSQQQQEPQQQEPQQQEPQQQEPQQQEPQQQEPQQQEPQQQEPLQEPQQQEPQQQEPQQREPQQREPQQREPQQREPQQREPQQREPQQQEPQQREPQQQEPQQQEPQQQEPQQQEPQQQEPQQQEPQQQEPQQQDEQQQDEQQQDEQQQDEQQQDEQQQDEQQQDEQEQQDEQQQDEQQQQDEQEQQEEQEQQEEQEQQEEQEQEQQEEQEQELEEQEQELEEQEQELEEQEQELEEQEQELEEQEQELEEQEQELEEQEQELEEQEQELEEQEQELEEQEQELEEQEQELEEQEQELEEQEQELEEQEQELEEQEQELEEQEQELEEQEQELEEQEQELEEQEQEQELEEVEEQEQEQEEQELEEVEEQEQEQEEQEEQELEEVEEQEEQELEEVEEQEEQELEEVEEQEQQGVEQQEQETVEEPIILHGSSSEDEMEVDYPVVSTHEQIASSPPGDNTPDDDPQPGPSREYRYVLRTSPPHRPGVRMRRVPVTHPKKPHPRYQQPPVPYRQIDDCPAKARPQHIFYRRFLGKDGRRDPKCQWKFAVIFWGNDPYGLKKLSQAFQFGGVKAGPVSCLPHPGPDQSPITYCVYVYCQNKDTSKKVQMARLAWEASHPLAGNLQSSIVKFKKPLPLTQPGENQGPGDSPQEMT
Kind of test: inhibitors of C-LANA binding to LBS DNA, dose response, biochemical, fluorescence polarization, cherry-picked samples (AID 504725).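 Also: fluorescence polarization of a labeled DNA duplex reporting LANA DNA binding; potency is for inhibitors that block LANA binding to the DNA.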 The arrangement: species or system Human gammaherpesvirus 8.

Test [11] concerns the target T3, Small ubiquitin-related modifier 2. Kind of test: SUMO2–SIM peptide binding inhibitors, dose response, selectivity assay for SUMO1 interaction inhibitor project, biochemical, fluorescence polarization, uHTS hits (AID 624385). In kind it is functional. As to conditions: read-out: IC50_Mean.
In test [12] the target is T7, Rac GTPase-activating protein 1 (Homo sapiens, UniProt Q9H0H5).
T7 sequence (Q9H0H5 whole entry): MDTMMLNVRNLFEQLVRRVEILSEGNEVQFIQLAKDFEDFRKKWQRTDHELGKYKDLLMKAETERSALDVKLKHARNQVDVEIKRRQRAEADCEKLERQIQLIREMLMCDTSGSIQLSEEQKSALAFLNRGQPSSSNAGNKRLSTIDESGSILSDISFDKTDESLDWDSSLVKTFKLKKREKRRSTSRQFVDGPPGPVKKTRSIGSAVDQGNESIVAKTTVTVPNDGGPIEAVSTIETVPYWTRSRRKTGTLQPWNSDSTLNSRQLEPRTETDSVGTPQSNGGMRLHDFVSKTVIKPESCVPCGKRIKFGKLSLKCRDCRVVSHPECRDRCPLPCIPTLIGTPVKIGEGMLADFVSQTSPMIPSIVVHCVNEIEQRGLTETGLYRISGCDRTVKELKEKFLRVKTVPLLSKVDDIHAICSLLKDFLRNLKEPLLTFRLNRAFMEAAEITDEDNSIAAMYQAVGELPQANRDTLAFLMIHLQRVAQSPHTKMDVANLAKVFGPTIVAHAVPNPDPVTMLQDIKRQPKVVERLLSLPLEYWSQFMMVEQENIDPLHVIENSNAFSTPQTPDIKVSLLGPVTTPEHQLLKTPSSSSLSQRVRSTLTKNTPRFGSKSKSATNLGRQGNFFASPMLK
Kind of test: MgcRacGAP GTPase-activating activity inhibitors, confirmation, biochemical, ADP Hunter fluorescence, primary and confirmatory (AID 624330). In kind it is functional.

For test [13], the target named is T5, Polyadenylate-binding protein 1. Kind of test: PABP1 MLLE–PAM2 binding inhibitor potency, dose response, biochemical, fluorescence polarization, FITC-PAM2 peptide (AID 602259). In kind it is functional. As to conditions: read-out: IC50_Mean.
In test [14] the target is T2, Small ubiquitin-related modifier 1. Kind of test: inhibitors of SUMO1 partner interactions, dose response, biochemical, FRET (AID 624383). As to conditions: read-out: IC50_Mean. It is filed as functional.
In another test the test system is Salmon testes DNA. Kind of test: DNA intercalators displacing acridine orange, dose response, artefact control for KSHV LANA DNA-binding inhibitor project, biochemical, fluorescence polarization, cherry-picked samples, set 2 (AID 504727). The arrangement: species or system Salmonidae.

Active and inactive are the calls of the source. Some results are limits rather than exact numbers.

Turning to `COC(=O)c1cnn(-c2ccc(F)cc2F)c1/C=N/NC(N)=S`, the IC50 in test [1] and in test [4] was > 32 µM (inactive) throughout. Besides, the concentration for a half-maximal effect (EC50) in test [2] and in [3] was > 112 µM (not active) in each case.

`O=C(NCc1ccccc1)C1=C[C@H](c2ccc(Br)cc2)C[C@H](OCc2ccc(CO)cc2)O1`: the concentration giving a half-maximal response (EC50) in test [5] is 10.6 µM (active). The IC50 in test [6] and in [7] was > 69.5 µM (inactive) throughout.

For `O=S(=O)(O)c1ccc(O)c2cc(Nc3ccccc3)ccc12`, the IC50 in [8] is 11.6 µM (active); in test [9] it was 0.58 µM (active); at Hexokinase HKDC1, 9.14 µM (active); at Genome polyprotein, 20 µM (active); in test [10], > 66 µM (inactive); on Troponin, cardiac muscle it was 3.89 µM (active). Moreover, the IC50 in test [11] is 7.83 µM (active); in [12], 19.6 µM (active); in test [13], > 66 µM (inactive); in [14], 0.88 µM (active). Besides, the AC50 is 233 µM (active) in the test with HeLa, 6.72 µM (active) at ORF 73 and 98.3 µM (active) in the test with Salmon testes DNA.
